Experimental data published in patent US9828384B2, “Spiro-lactam NMDA receptor modulators and uses thereof” (Aptinyx Inc., priority 2013, dated 2017).
Like-named read-outs stand apart in the source and are kept apart here.

How the values were obtained:
LTP = LTP augmentation; conditions: LTP concentration 1 uM
NMDA receptor = molecular target: T1, NMDA receptor (Rattus norvegicus, UniProt P35439); experiment: [3H] MK-801 Binding Assay (MK-801 Glycine Site Binding Assay: Rat Cortex)
T1 construct: well washed rat cortical membranes (200 μg); from tissue; host or cells: rat cerebral cortex membranes
Description: Assays were conducted as described in Moskal et al. (Moskal, J. R., Kuo, A. G., Weiss, C., Wood, P. L., O'Connor Hanson, A., Kelso, S., Harris, R. B., Disterhoft, J. F., 2005. GLYX-13: a monoclonal antibody-derived peptide that acts as an N-methyl-D-aspartate receptor modulator. Neuropharmacology. 49, 1077-87) The potentiation of [^3H]MK-801 binding (5 nM; 22.5 Ci/mmol) to well washed rat cortical membranes (200 μg) was measured under non-equilibrium conditions (15 min @25° C.) in the presence of increasing concentrations of test compounds and 50 μM glutamate. Zero levels were determined in the absence of any glycine ligand and in the presence of 30 μM 5,7 DCKA. Maximal stimulation was measured in the presence of 1 mM glycine, and 50 μM glutamate was present in all samples. The facilitation of [^3H]MK-801 binding by tests compounds was calculated by using a 3 parameter log agonist vs. response equation (Graph pad Prism, USA) and potency (EC50, expressed in pM) and maximal activity (% maximal stimulation) were calculated for the test compound.

[1] = Porsolt floating time inhibition; type: in vivo; conditions: 1 hour post dose
[2] = Table 3, read-out: MK-801 Glycine Site Binding Assay: Rat Cortex EC50

| EC50 (NMDA receptor; [2]) | Compound | LTP: LTP Augmentation (%) (LTP) | Unified Activity Data: LTP Augmentation (Percent) (LTP) | also measured |
| --- | --- | --- | --- | --- |
| 0.11 nM | CC(O)C(c1ncccn1)N1CC2(CCC(C)N2C(=O)OC(C)(C)C)C1=O (centres unmarked) [Compound C-19, tert-butyl 2-(2-hydroxy-1-(pyrimidin-2-yl)propyl)-6-methyl-1-oxo-2,5-diazaspiro[3,4]octane-5-carboxylate] | 110% |  |  |
|  | CC1N([C@@H](c2nnco2)[C@H](C)O)C(=O)C12CCCN2C(=O)OC(C)(C)C (stereo partly drawn) [Compound C-26, tert-butyl 2-((1R, 2S)-2-hydroxy-1-(1,3,4-oxadiazol-2-yl)propyl)-1-methyl-3-oxo-2,5-diazaspiro[3,4]octane-5-carboxylate] | 65% |  |  |
|  | C[C@@H](O)[C@@H](c1ncno1)N1CC2(CCCN2C(=O)OC(C)(C)C)C1=O (stereo partly drawn) [Compound C-15, tert-butyl 2-((1S,2R)-2-hydroxy-1-(1,2,4-oxadiazol-5-yl)propyl)-1-oxo-2,5-diazaspiro[3,4]octane-5-carboxylate] |  | 120% | Unified Activity Data: Porsolt Floating Time Inhibition (Percent) ([1]; 1 mg/kg PO): 86% |
|  | CC(O)C(c1ncccn1)N1CC2(CCCN2)C1=O (centres unmarked) [Compound Y, 2-(2-hydroxy-1-(pyrimidin-2-yl)propyl)-2,5-diazaspiro[3.4]octan-1-one] |  | 140% | EC50 (NMDA receptor; Table 2, read-out: MK-801 Glycine Site Binding Assay: Rat Cortex EC50): 0.288 nM; Emax (NMDA receptor; maximal stimulation measured with 1 mM glycine, 50 μM glutamate): 14%; EC50 (NMDA receptor; rat cortical membranes, 50 μM glutamate, read-out: potency (EC50) for potentiation of [3H]MK-801 binding): 0.288 nM; Unified Activity Data: Porsolt Floating Time Inhibition (Percent) ([1]; 3 mg/kg IV): 92% |
| 0.135 nM | CC(O)C(c1ncccn1)N1C(=O)C2(CCCN2C(=O)OC(C)(C)C)C1C (centres unmarked) [Compound C-29, tert-butyl 2-(2-hydroxy-1-(pyrimidin-2-yl)propyl)-1-methyl-3-oxo-2,5-diazaspiro[3,4]octane-5-carboxylate] | 125% |  |  |

| Compound | EC50 (NMDA receptor; [2]) | LTP: LTP Augmentation (%) (LTP) | Unified Activity Data: LTP Augmentation (Percent) (LTP) | also measured |
| --- | --- | --- | --- | --- |
| 2-(2-hydroxy-1-(pyrimidin-2-yl)propyl)-3,6-dimethyl-2, 5-diazaspiro[3,4]octan-1-one [Compound C-33] | 0.00713 nM | 30% |  |  |
